Experimental data published in the NIST ThermoML archive (doi:10.1021/je030215z).

What was measured:
[1] = 298.15 K; 101.33 kPa; Liquid
[2] = excess molar enthalpy (molar enthalpy of mixing); xn = mol fraction of the nth substance listed; settings: 298.15 K, 101.33 kPa, Liquid, Flow calorimetry

CCCCCCCCCC [decane]
Settings	mass density [kg/m3]
[1]	726.3

CCCCCCCCCCCC [dodecane]
Settings	mass density [kg/m3]
[1]	745.32

CCCCCCC [heptane]
Settings	mass density [kg/m3]
[1]	680.17

C=CCCCC [hex-1-ene]
Settings	mass density [kg/m3]
[1]	668.73

C=CCCCC [hex-1-ene] + CCCCCCC
[2]
Settings	excess molar enthalpy [kcal/mol]
x1 = 0.05	0.00266
x1 = 0.1	0.00507
x1 = 0.1499	0.00724
x1 = 0.1998	0.00898
x1 = 0.2496	0.0107
x1 = 0.2998	0.0121
x1 = 0.35	0.0131
x1 = 0.3984	0.0141
x1 = 0.4492	0.0146
x1 = 0.5005	0.0147
x1 = 0.5498	0.0147
x1 = 0.6	0.0143
x1 = 0.6496	0.0135
x1 = 0.6992	0.0126
x1 = 0.7497	0.0113
x1 = 0.8	0.00988
x1 = 0.8499	0.0079
x1 = 0.9	0.00559
x1 = 0.95	0.0028

C=CCCCC [hex-1-ene] + CCCCCCCC
[2]
Settings	excess molar enthalpy [kcal/mol]
x1 = 0.05	0.00272
x1 = 0.1	0.00532
x1 = 0.15	0.0078
x1 = 0.2036	0.00995
x1 = 0.2496	0.0115
x1 = 0.3	0.0131
x1 = 0.3497	0.0143
x1 = 0.3998	0.0153
x1 = 0.45	0.0158
x1 = 0.5	0.0162
x1 = 0.5499	0.0161
x1 = 0.5994	0.0157
x1 = 0.65	0.015
x1 = 0.6998	0.014
x1 = 0.7501	0.0126
x1 = 0.8002	0.0108
x1 = 0.8499	0.00882
x1 = 0.9	0.00628
x1 = 0.95	0.00332

C=CCCCC [hex-1-ene] + CCCCCCCCCC
[2]
Settings	excess molar enthalpy [kcal/mol]
x1 = 0.05	0.00385
x1 = 0.1	0.00726
x1 = 0.1503	0.0103
x1 = 0.2001	0.0129
x1 = 0.2482	0.0154
x1 = 0.2997	0.0174
x1 = 0.3504	0.019
x1 = 0.3999	0.0204
x1 = 0.4508	0.0211
x1 = 0.4994	0.0217
x1 = 0.5501	0.0217
x1 = 0.5996	0.0213
x1 = 0.6496	0.0204
x1 = 0.7004	0.019
x1 = 0.7495	0.0172
x1 = 0.7998	0.0149
x1 = 0.8501	0.0122
x1 = 0.9	0.00862
x1 = 0.95	0.00457

C=CCCCC [hex-1-ene] + CCCCCCCCCCCC
[2]
Settings	excess molar enthalpy [kcal/mol]
x1 = 0.0501	0.00512
x1 = 0.0999	0.00975
x1 = 0.15	0.0136
x1 = 0.1999	0.0174
x1 = 0.2521	0.0208
x1 = 0.2994	0.0235
x1 = 0.3494	0.0259
x1 = 0.4001	0.0277
x1 = 0.4503	0.0287
x1 = 0.5001	0.0293
x1 = 0.5505	0.0294
x1 = 0.5998	0.029
x1 = 0.6501	0.0278
x1 = 0.6999	0.026
x1 = 0.7499	0.0234
x1 = 0.8001	0.02
x1 = 0.8503	0.0162
x1 = 0.8999	0.0117
x1 = 0.95	0.00626

CCCCCCCC [octane]
Settings	mass density [kg/m3]
[1]	698.72

CCCCCCCCCCCCCC [tetradecane]
Settings	mass density [kg/m3]
[1]	759.36

CCCCCCCCCCCCCC [tetradecane] + C=CCCCC
[2]
Settings	excess molar enthalpy [kcal/mol]
x2 = 0.05	0.00618
x2 = 0.1001	0.0124
x2 = 0.1501	0.0179
x2 = 0.2003	0.0228
x2 = 0.2499	0.0271
x2 = 0.297	0.0305
x2 = 0.3497	0.0339
x2 = 0.4002	0.0363
x2 = 0.4498	0.0376
x2 = 0.5	0.0386
x2 = 0.5497	0.0387
x2 = 0.5998	0.038
x2 = 0.6495	0.0364
x2 = 0.6996	0.0339
x2 = 0.7502	0.0306
x2 = 0.7996	0.0264
x2 = 0.8498	0.0211
x2 = 0.8999	0.015
x2 = 0.95	0.00747
